Counter-ions that a name gives are not always drawn.

T1 sequence (Q15858 whole entry): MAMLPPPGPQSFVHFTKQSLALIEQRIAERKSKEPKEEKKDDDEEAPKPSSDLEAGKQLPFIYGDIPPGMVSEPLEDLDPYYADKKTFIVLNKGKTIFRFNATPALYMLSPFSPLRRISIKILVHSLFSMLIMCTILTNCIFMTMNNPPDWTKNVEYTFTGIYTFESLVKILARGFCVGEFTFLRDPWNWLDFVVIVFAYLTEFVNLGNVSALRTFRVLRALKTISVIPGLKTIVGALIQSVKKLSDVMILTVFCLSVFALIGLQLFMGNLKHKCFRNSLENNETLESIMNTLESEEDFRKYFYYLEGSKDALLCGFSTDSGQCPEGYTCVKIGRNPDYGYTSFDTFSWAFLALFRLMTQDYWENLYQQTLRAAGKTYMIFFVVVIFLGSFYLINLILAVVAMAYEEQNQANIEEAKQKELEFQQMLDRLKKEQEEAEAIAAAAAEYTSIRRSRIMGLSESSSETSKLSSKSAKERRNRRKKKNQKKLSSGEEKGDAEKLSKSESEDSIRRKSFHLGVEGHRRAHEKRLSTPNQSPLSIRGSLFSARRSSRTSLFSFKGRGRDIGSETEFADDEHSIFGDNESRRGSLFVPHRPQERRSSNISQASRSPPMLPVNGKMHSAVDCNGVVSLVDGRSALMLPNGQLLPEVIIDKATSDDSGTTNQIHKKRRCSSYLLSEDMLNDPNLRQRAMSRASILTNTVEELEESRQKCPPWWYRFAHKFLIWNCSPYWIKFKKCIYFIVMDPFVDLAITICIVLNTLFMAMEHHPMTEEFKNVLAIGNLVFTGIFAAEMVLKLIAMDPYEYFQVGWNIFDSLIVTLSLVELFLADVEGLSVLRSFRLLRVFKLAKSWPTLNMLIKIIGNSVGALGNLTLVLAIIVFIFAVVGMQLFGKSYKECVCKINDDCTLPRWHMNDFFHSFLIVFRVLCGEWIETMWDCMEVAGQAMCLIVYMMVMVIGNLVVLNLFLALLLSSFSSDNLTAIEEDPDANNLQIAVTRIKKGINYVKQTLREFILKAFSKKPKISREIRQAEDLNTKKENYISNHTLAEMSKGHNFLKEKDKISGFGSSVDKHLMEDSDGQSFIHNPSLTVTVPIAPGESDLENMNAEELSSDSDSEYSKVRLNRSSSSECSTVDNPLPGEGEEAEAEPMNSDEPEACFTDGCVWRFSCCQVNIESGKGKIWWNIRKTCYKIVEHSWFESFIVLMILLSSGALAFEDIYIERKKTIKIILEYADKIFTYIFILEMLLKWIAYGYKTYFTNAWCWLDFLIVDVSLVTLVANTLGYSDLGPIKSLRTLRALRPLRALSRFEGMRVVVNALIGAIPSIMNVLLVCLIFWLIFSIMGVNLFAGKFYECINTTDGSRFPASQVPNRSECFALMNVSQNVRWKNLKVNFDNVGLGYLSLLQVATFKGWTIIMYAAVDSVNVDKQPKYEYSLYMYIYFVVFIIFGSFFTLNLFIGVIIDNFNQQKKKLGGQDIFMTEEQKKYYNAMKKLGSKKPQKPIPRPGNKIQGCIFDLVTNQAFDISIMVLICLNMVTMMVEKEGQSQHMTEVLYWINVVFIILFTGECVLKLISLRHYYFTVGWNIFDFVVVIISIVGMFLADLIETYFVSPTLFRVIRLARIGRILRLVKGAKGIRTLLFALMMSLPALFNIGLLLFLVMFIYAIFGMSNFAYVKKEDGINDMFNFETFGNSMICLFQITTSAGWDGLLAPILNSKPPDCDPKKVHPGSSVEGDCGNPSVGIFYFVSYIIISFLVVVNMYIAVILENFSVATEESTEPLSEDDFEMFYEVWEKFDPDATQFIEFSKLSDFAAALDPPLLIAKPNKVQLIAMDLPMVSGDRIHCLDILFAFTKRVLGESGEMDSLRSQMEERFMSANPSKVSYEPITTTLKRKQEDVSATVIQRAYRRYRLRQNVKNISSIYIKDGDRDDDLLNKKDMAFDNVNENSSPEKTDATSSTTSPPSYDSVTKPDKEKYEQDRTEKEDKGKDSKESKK

This experiment addresses T1, Nav1.7 (or SCN9A) channel (Homo sapiens, UniProt Q15858).
T1 construct: expressed in transfected cells
The experiment in a line: Nav1.7 (hSCN9A) PatchXpress electrophysiology in HEK cells. Format: cell-based. The conditions noted are these: PatchXpress platform; HEK cells stably expressing hSCN9A; held at V1/2 of inactivation; calculated from single point % inhibition; read-out: Nav1.7 EIC50 (estimated IC-50). The protocol:
The ability of the compounds of formula (I) to block the Nav1.7 (or SCN9A) channel were measured using the assay described below.
Human Embryonic Kidney (HEK) cells were transfected with an hSCN9A construct using lipofectamine reagent (Invitrogen), using standard techniques. Cells stably expressing the hSCN9A constructs were identified by their resistance to G-418 (400 μg/ml). Clones were screened for expression using the whole-cell voltage-clamp technique.
HEK cells stably transfected with hSCN9A were maintained in DMEM medium supplemented with 10% heat-inactivated fetal bovine serum and 400 µg/ml G-418 in an incubator at 37° C. with a humidified atmosphere of 10% CO2. For HTS, cells were harvested from flasks by trypsinization and replated in an appropriate multi-well plate (typically 96 or 384 wells/plate) such that confluence would be achieved within 24 hours of plating. For electrophysiological studies, cells were removed from the culture flask by brief trypsinization and re-plated at low density onto glass cover slips. Cells were typically used for electrophysiological experiments within 24 to 72 hours after plating.
Cover slips containing HEK cells expressing hSCN9A were placed in a bath on the stage of an inverted microscope and perfused (approximately 1 ml/minutes) with extracellular solution of the following composition: 138 mM NaCl, 2 mM CaCl2, 5.4 mM KCl, 1 mM MgCl2, 10 mM glucose, and 10 mM HEPES, pH 7.4, with NaOH. […] The osmolarity of the extracellular and intracellular solutions was 300 mOsm/kg and 295 mOsm/kg, respectively. All recordings were made at room temperature (22-24° C.) using AXOPATCH 200B amplifiers and PCLAMP software (Axon Instruments, Burlingame, Calif.).
hSCN9A currents in HEK cells were measured using the whole-cell configuration of the patch-clamp technique (Hamill et al., 1981). Uncompensated series resistance was typically 2 to 5 mega ohms and >85% series resistance compensation was routinely achieved. As a result, voltage errors were negligible and no correction was applied. Current records were acquired at 20 to 50 KHz and filtered at 5 to 10 KHz.
HEK cells stably transfected with hSCN9A were viewed under Hoffman contrast optics and placed in front of an array of flow pipes emitting either control or compound-containing extracellular solutions. All compounds were dissolved in dimethyl sulfoxide to make 10 mM stock solutions, which were then diluted into extracellular solution to attain the final concentrations desired. […] The voltage-dependence of inactivation was determined by applying a series of depolarizing prepulses (8 sec long in 10 mV increments) from a negative holding potential. The voltage was then immediately stepped to 0 mV to assess the magnitude of the sodium current. Currents elicited at 0 mV were plotted as a function of prepulse potential to allow estimation of the voltage at which 50% of the channels were inactivated (midpoint of inactivation or V1/2). Compounds were tested for their ability to inhibit hSCN9A sodium channels by activating the channel with a 20 msec voltage step to 0 mV following an 8 second conditioning prepulse to the empirically determined V1/2. Compound effect (% inhibition) was determined by difference in current amplitude before and after application of test compounds. For ease of comparison, “estimated IC-50” (EIC50) values were calculated from single point electrophysiology data by the following equation, (tested concentration, uM)×(100-% inhibition/% inhibition). Inhibition values <20% and >80% were excluded from the calculation.
Electrophysiological assays were conducted with PatchXpress 7000 hardware and associated software (Molecular Devices Corp). All assay buffers and solutions were identical to those used in conventional whole-cell voltage clamp experiments described above. hSCN9A cells were grown as above to 50%-80% confluency and harvested by trypsinization. […]
With `O=S(=O)(Nc1nncs1)c1cc(Cl)c(Oc2cc(Cl)c(-c3ccc(F)cc3)cc2-c2ccnnc2)cc1F` [Example 24, 5-Chloro-4-{[2-chloro-4′-fluoro-5-(pyridazin-4-yl)biphenyl-4-yl]oxy}-2-fluoro-N-(1,3,4-thiadiazol-2-yl)benzenesulfonamide], the IC50 is 1.7 nM. For `Nc1n[nH]cc1-c1cc(-c2cccc(C(F)(F)F)c2)ccc1Oc1cc(F)c(S(=O)(=O)Nc2nncs2)cc1Cl` [Example 25, 4-{[3-(3-Amino-1H-pyrazol-4-yl)-3′-(trifluoromethyl)biphenyl-4-yl]oxy}-5-chloro-2-fluoro-N-(1,3,4-thiadiazol-2-yl)benzenesulfonamide], the IC50 is 0.8 nM.

As to `O=S(=O)(Nc1nncs1)c1cc(Cl)c(Oc2cc(Cl)c(-c3cccc(F)c3)cc2-c2ccnnc2)cc1F` [Example 26, 5-Chloro-4-{[2-chloro-3′-fluoro-5-(pyridazin-4-yl)biphenyl-4-yl]oxy}-2-fluoro-N-(1,3,4-thiadiazol-2-yl)benzenesulfonamide], the IC50 was 2.3 nM. Regarding `O=S(=O)(Nc1nncs1)c1cc(Cl)c(Oc2cc(Cl)c(-c3ccccc3F)cc2-c2ccnnc2)cc1F` [Example 27, 5-Chloro-4-{[2-chloro-2′-fluoro-5-(pyridazin-4-yl)biphenyl-4-yl]oxy}-2-fluoro-N-(1,3,4-thiadiazol-2-yl)benzenesulfonamide], the IC50 is 0.9 nM. As for `O=S(=O)(Nc1nncs1)c1cc(Cl)c(Oc2cc(Cl)c(-c3cccc(C(F)(F)F)c3)cc2-c2ccnnc2)cc1F` [Example 28, 5-Chloro-4-{[2-chloro-5-(pyridazin-4-yl)-3′-(trifluoromethyl)biphenyl-4-yl]oxy}-2-fluoro-N-(1,3,4-thiadiazol-2-yl)benzenesulfonamide], the IC50 was 0.9 nM. For `O=S(=O)(Nc1nncs1)c1cc(Cl)c(Oc2ccc(-c3ccc(Cl)c(C(F)(F)F)c3)cc2-c2ccnnc2)cc1F` [Example 29, 5-Chloro-4-{[4′-chloro-3-(pyridazin-4-yl)-3′-(trifluoromethyl)biphenyl-4-yl]oxy}-2-fluoro-N-(1,3,4-thiadiazol-2-yl)benzenesulfonamide] the value was 0.8 nM; for `O=S(=O)(Nc1nncs1)c1cc(Cl)c(Oc2ccc(-c3ccc(C(F)(F)F)nc3)cc2-c2ccnnc2)cc1F` [Example 30, 5-Chloro-2-fluoro-4-{2-(pyridazin-4-yl)-4-[6-(trifluoromethyl)pyridin-3-yl]phenoxy}-N-(1,3,4-thiadiazol-2-yl)benzenesulfonamide], 23 nM. In the case of `O=S(=O)(Nc1nncs1)c1cc(Cl)c(Oc2ccc(-c3cccc(C(F)(F)F)n3)cc2-c2ccnnc2)cc1F` [Example 31, 5-Chloro-2-fluoro-4-{2-(pyridazin-4-yl)-4-[6-(trifluoromethyl)pyridin-2-yl]phenoxy}-N-(1,3,4-thiadiazol-2-yl)benzenesulfonamide], the IC50 was 16 nM.

On to `N#Cc1cccc(-c2ccc(Oc3cc(F)c(S(=O)(=O)Nc4nncs4)cc3Cl)c(-c3c[nH]nc3N)c2)c1` [Example 32, 4-{[3-(5-Amino-1H-pyrazol-4-yl)-3′-cyanobiphenyl-4-yl]oxy}-5-chloro-2-fluoro-N-(1,3,4-thiadiazol-2-yl)benzenesulfonamide], for which the IC50 is 5.3 nM.

Turning to `O=S(=O)(Nc1nncs1)c1cc(Cl)c(Oc2ccc(-c3ccnc(C(F)(F)F)c3)cc2-c2ccnnc2)cc1F` [Example 33], the IC50 was 16 nM. With `O=S(=O)(Nc1nncs1)c1cc(Cl)c(Oc2ccc(-c3ccc(C(F)(F)F)cc3)cc2-c2ccnc(N3CCNCC3)c2)cc1F` [Example 34, 5-Chloro-2-fluoro-4-({3-[2-(piperazin-1-yl)pyridin-4-yl]-4′-(trifluoromethyl)biphenyl-4-yl}oxy)-N-(1,3,4-thiadiazol-2-yl)benzenesulfonamide, hydrochloride], the IC50 was 0.5 nM.
